{
  "source": "ChEMBL document CHEMBL5465560",
  "about": "“Selectivity Literature for EUbOPEN Chemogenomic Library” (2024)",
  "key": {"[1]": {"target": "Rho-associated protein kinase 1 (Homo sapiens) (UniProt Q13464)", "sequence (Q13464 2-1354 limits assumed)": "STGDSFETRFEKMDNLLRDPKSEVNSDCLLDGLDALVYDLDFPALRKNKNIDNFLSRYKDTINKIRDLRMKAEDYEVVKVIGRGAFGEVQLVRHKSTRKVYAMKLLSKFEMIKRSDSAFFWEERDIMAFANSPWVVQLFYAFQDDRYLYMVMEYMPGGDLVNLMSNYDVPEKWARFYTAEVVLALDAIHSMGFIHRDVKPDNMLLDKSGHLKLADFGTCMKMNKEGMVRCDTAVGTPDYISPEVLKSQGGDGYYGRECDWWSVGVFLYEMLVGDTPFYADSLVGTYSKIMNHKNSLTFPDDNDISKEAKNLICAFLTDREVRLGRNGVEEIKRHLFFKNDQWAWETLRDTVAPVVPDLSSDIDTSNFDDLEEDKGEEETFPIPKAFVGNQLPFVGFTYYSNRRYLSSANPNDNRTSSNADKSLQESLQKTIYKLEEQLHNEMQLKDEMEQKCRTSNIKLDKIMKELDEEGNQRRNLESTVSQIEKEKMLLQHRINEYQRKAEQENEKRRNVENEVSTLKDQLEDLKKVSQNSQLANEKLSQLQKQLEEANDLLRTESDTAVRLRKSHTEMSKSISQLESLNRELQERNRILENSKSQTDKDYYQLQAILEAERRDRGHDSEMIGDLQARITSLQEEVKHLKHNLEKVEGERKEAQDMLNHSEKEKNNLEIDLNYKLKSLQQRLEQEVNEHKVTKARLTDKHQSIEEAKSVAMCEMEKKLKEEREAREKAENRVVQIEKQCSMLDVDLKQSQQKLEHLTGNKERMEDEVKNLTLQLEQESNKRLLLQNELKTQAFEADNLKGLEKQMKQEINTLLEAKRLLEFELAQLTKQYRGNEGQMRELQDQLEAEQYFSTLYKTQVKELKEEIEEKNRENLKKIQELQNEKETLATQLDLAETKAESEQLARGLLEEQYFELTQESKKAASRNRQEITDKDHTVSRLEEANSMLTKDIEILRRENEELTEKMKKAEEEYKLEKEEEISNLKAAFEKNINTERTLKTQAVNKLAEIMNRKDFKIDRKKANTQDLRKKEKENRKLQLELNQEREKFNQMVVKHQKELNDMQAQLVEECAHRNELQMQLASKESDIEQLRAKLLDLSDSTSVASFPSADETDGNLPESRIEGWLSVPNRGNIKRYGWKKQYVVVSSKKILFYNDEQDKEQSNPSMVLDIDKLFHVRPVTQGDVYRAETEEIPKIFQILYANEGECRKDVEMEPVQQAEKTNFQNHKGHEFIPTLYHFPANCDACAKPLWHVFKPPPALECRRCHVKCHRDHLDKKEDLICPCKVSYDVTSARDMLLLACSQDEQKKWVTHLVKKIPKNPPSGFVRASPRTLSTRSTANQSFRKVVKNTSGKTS", "experiment": "Selectivity interaction (KinomeScan (DiscoverX)) EUB0001049a ROCK1", "details": "at 1 µM"}, "[2]": {"target": "Voltage-dependent N-type calcium channel subunit alpha-1B (Homo sapiens) (UniProt Q00975)", "experiment": "Selectivity interaction (Eurofins CEREP Diversity Profile (receptors and ion channels)) EUB0000279b CACNA1B", "details": "at 10 µM"}, "[3]": {"target": "Dual specificity protein kinase CLK4 (Homo sapiens, UniProt Q9HAZ1)", "sequence (Q9HAZ1 whole entry, looked up)": "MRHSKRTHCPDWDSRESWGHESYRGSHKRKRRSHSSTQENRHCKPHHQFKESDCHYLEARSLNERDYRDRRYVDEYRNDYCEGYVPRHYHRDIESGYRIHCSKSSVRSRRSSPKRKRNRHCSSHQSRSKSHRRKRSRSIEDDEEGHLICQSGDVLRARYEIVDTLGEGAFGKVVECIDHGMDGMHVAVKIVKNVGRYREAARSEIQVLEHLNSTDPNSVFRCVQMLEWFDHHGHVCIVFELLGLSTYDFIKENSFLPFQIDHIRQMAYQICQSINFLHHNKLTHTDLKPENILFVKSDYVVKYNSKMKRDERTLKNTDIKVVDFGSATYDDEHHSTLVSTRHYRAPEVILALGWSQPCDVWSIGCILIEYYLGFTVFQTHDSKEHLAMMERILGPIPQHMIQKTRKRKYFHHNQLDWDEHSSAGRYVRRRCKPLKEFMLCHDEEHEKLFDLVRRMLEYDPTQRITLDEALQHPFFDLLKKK", "details": "at 10 µM"}, "[4]": {"target": "Dual specificity tyrosine-phosphorylation-regulated kinase 1B (Homo sapiens, UniProt Q9Y463)", "sequence (Q9Y463 whole entry, looked up)": "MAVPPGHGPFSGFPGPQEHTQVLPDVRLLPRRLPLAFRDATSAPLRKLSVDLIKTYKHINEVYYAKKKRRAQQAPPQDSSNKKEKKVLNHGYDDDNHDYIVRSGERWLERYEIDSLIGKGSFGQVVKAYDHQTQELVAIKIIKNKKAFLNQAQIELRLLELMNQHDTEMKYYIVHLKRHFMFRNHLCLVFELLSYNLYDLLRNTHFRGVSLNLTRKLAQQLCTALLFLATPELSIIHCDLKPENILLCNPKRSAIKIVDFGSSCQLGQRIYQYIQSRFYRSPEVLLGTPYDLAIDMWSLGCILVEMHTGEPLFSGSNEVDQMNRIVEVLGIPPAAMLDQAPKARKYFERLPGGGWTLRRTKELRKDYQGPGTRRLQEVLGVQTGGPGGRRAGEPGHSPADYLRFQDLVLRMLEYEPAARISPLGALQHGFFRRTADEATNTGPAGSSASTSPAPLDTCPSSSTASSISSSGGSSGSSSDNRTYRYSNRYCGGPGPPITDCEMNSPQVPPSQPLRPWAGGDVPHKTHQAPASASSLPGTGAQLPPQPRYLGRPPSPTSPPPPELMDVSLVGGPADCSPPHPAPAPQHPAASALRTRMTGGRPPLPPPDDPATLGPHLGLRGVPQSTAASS", "experiment": "Selectivity interaction (Ambit KINOMEscan and KiNATiv profiling in Jurkat cells) EUB0000090b DYRK1B", "assay_type": "cell-based", "details": "at 1 µM"}, "[5]": {"target": "T1, Histone-arginine methyltransferase CARM1 (Homo sapiens) (UniProt Q86X55)", "T1 sequence (whole entry)": "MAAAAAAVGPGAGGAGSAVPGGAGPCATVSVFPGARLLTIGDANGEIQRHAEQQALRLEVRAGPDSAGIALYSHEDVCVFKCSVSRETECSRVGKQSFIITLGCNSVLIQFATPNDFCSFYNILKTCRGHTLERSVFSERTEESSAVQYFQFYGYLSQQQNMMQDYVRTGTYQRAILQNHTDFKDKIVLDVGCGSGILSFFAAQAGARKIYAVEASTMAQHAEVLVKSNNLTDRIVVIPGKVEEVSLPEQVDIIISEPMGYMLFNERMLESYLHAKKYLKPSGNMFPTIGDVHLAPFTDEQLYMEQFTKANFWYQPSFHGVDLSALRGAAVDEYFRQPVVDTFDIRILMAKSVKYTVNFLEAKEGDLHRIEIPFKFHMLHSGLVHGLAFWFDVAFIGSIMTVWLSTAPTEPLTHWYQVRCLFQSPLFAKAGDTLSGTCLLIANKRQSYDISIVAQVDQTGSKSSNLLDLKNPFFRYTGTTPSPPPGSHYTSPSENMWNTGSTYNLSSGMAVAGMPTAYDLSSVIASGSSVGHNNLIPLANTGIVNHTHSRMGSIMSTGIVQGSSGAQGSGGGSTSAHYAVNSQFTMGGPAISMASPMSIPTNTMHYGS", "experiment": "Selectivity interaction (Methyltransferase screen (Scintillation proximity assays)) EUB0000255b CARM1"}, "[6]": {"target": "T2, Dual specificity tyrosine-phosphorylation-regulated kinase 2 (Homo sapiens) (UniProt Q92630)", "T2 sequence (whole entry)": "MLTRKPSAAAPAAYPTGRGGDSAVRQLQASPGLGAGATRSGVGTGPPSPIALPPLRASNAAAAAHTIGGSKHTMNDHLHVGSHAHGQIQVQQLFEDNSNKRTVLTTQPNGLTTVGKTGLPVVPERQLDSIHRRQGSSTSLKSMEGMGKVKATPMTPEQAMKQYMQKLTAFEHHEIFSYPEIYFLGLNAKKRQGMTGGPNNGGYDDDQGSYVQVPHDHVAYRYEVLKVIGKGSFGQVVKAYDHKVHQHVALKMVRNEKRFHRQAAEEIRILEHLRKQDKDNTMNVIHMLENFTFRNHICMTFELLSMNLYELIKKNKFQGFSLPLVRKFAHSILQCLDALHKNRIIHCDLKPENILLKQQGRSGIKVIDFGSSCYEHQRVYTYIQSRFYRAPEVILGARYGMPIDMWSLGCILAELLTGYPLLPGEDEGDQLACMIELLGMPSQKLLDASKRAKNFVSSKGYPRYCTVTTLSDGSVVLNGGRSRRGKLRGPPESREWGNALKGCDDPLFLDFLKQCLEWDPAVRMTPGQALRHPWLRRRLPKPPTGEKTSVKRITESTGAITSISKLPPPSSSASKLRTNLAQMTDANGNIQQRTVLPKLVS", "details": "at 10 µM"}, "Ephrin type-A receptor 4": {"target": "Ephrin type-A receptor 4 (Homo sapiens, UniProt P54764)", "sequence (P54764 whole entry)": "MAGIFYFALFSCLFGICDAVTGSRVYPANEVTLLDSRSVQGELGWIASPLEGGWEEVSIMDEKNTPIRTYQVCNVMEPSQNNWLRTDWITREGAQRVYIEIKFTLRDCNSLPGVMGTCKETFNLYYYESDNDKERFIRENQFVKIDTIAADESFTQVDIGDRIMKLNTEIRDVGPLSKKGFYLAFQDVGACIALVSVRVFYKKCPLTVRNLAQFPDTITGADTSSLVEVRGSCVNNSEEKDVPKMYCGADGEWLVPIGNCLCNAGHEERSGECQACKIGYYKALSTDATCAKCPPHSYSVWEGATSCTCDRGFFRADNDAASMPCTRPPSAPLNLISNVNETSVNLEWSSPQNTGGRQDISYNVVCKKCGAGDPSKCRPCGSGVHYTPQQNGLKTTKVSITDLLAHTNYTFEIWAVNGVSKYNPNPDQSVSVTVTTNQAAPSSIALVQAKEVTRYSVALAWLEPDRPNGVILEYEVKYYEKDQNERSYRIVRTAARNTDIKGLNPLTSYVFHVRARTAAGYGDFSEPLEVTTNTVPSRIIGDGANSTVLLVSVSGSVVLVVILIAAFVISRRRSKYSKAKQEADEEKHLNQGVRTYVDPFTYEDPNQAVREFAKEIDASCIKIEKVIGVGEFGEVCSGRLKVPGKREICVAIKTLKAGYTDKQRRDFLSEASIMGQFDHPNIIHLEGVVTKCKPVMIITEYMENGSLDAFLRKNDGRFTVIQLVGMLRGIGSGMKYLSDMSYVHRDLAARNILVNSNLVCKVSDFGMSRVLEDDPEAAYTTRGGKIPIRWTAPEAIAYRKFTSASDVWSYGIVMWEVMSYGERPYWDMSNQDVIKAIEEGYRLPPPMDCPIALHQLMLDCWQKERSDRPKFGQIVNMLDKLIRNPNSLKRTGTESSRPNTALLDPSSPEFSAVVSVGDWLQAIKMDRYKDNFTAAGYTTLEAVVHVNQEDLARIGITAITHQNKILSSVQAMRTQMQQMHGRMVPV", "details": "at 10 µM"}, "[7]": {"target": "Eukaryotic translation initiation factor 2-alpha kinase 1 (Homo sapiens) (UniProt Q9BQI3)", "sequence (Q9BQI3 whole entry)": "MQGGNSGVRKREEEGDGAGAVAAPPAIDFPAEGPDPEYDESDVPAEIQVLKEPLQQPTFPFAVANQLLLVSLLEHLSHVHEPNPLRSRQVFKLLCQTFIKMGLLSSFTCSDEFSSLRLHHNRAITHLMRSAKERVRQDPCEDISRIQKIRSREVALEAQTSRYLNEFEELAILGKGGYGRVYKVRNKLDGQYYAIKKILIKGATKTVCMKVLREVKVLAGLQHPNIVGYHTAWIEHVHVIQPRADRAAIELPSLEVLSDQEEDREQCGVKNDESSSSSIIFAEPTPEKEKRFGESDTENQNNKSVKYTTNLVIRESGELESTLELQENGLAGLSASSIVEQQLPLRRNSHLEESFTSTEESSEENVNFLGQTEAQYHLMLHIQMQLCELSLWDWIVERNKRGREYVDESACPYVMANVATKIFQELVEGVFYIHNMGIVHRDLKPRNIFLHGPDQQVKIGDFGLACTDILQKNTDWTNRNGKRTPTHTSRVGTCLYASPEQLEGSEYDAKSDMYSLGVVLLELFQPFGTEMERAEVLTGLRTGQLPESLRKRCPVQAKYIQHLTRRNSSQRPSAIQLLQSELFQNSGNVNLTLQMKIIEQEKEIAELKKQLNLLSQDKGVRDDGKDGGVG", "experiment": "Selectivity interaction (KinomeScan (DiscoverX)) EUB0001619a EIF2AK1", "details": "at 1 µM"}, "[8]": {"target": "T3, Serine/threonine-protein kinase TAO2 (Homo sapiens) (UniProt Q9UL54)", "T3 sequence (whole entry)": "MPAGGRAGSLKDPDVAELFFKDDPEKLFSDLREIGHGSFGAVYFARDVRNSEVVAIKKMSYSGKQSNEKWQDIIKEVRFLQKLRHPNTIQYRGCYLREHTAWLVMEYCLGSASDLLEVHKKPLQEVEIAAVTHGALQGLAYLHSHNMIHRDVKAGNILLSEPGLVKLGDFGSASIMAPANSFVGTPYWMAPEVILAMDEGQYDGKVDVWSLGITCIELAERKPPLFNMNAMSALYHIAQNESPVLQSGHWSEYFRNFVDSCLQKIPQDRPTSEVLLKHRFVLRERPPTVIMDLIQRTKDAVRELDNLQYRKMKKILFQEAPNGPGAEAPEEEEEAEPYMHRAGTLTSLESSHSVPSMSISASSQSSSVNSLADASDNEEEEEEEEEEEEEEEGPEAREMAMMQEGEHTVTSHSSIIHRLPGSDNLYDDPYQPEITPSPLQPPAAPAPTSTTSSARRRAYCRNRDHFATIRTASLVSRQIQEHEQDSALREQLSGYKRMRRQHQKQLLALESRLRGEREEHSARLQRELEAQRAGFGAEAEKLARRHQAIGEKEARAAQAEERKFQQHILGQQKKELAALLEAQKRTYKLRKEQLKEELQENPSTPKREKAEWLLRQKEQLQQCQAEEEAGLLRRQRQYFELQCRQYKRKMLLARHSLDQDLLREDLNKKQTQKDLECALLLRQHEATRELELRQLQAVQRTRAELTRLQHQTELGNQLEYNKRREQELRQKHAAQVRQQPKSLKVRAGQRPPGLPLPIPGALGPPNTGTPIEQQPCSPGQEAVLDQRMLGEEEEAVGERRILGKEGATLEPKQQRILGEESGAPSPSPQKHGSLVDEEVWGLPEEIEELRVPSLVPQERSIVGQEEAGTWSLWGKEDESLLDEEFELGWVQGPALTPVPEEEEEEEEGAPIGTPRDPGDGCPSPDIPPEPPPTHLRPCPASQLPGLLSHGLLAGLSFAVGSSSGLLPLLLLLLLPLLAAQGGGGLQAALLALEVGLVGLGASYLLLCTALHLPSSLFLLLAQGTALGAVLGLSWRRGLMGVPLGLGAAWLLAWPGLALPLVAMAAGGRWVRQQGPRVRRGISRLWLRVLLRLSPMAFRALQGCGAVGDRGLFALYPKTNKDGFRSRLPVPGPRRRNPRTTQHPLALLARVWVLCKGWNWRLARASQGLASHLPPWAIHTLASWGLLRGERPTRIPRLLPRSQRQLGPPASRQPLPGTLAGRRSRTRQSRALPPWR", "experiment": "Selectivity interaction (Kinase panel (Z-LYTE Assay)) EUB0001632a TAOK2", "details": "at 10 µM"}, "[9]": {"target": "Phosphatidylinositol 4-kinase type 2-alpha (Homo sapiens) (UniProt Q9BTU6)", "sequence (Q9BTU6 whole entry)": "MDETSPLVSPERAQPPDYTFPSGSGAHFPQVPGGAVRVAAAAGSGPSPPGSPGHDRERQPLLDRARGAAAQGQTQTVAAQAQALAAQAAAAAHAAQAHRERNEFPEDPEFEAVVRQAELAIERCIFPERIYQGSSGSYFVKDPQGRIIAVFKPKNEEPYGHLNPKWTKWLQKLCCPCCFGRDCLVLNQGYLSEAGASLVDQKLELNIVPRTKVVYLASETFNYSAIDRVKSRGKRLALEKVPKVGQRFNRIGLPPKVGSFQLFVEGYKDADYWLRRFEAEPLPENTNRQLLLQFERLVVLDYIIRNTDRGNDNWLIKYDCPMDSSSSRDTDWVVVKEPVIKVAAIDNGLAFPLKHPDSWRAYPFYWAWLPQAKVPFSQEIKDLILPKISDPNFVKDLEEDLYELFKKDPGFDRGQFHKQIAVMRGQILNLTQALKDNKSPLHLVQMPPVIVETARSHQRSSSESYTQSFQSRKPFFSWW", "experiment": "Selectivity interaction (ProQinase) EUB0000171b PI4K2A"}},
  "data": [
    {"smiles": "COc1cc(Nc2nc(C)cc(-c3cnn4nc(OC)ccc34)n2)cc(C(F)(F)F)c1", "values": [
      {"measurement": "% of control", "setting": "[1]", "value": 99, "unit": "%"}
    ]},
    {"smiles": "CC(=O)c1cc(-c2ccccc2OCC2CC2)c2ncccn12", "values": [
      {"measurement": "% of control", "setting": "[2]", "value": 115, "unit": "%"}
    ]},
    {"smiles": "CCN(CC)CCCCNc1ncc2cc(-c3cc(OC)cc(OC)c3)c(NC(=O)NC(C)(C)C)nc2n1", "values": [
      {"measurement": "% of control", "setting": "[3]", "value": 100, "unit": "%"}
    ]},
    {"smiles": "CN(C)C/C=C/C(=O)Nc1ccc(C(=O)N2CCCC(Nc3ncc(Cl)c(-c4c[nH]c5ccccc45)n3)C2)cc1", "note": "(configuration not stated)", "values": [
      {"measurement": "% of control", "setting": "[4]", "value": 6.1, "unit": "%"}
    ]},
    {"smiles": "COCCN1CCC(c2cc(CN(C)C(=O)c3cccc(Oc4ccccc4)c3)ccn2)CC1", "values": [
      {"measurement": "% activity", "setting": "[5]; at 1 µM", "value": "< 1", "unit": "%"},
      {"measurement": "% activity", "setting": "[5]; at 10 µM", "value": 23, "unit": "%"}
    ]},
    {"smiles": "Cc1cc([C@@H](C)Nc2ccccc2C(=O)O)c2nc(N3CCOCC3)cc(=O)n2c1", "note": "[AZD-6482]", "values": [
      {"measurement": "% of control", "setting": "[6]", "value": 89, "unit": "%"},
      {"measurement": "% of control", "setting": "Ephrin type-A receptor 4", "value": 93, "unit": "%"}
    ]},
    {"smiles": "N#Cc1cccc(-c2c[nH]c3ncnc(N4CCOCC4)c23)c1", "values": [
      {"measurement": "% of control", "setting": "[7]", "value": 100, "unit": "%"}
    ]},
    {"smiles": "Cn1cc(-n2cnc3c(NCc4nc5cc(Cl)c(Cl)cc5[nH]4)nc(N4CCOCC4)nc32)cn1", "values": [
      {"measurement": "% of control", "setting": "[8]", "value": 41.6, "unit": "%"}
    ]},
    {"smiles": "C=CC(=O)Nc1cccc(C(=O)Nc2ccc(Nc3cc(-c4[nH]c(SC)nc4C)ccn3)cc2)c1", "values": [
      {"measurement": "% of control", "setting": "[9]; at 1 µM", "value": 117, "unit": "%"},
      {"measurement": "% of control", "setting": "[9]; at 5 µM", "value": 133, "unit": "%"}
    ]}
  ]
}
